Counter-ions that a name gives are not always drawn.
Assay: Water solubility of an additive
Assay type: physicochemical
Settings: 25° C., demineralized water
Procedure: The water solubility of an additive was determined at ambient conditions (25° C.) in demineralized water. Measured quantities of additive and demineralized water were combined and shaken for up to two hours. The additive was deemed soluble if a clear solution resulted; the additive was otherwise deemed insoluble. The water solubility of an additive is the maximum concentration of additive producing a clear solution in water.

Compound	Solubility H2O
CCCCOC(=O)CC(CC(=O)OCCCC)(OC(C)=O)C(=O)OCCCC [ATBC, Acetyl tributyl citrate]	<0.1 w %
CCCCOC(=O)CC(O)C(=O)OCCCC (stereo not drawn) [DBM, Dibutyl malate]	0.2 w %
CCCCOC(=O)C(O)C(O)C(=O)OCCCC (stereo not drawn) [DBT, Dibutyl tartarate]	0.8 w %
CCOC(=O)CC(O)C(=O)OCC (stereo not drawn) [DEM, Diethyl malate]	>10 w %
CC(C)OC(=O)C(O)C(O)C(=O)OC(C)C (stereo not drawn) [DIPT, Diisopropyl tartarate]	>10 w %

Other lines, results leading:

Solubility H2O	Compound
0.4 w %	C=C(C)C(=O)OCC(CO)OC(=O)C(=C)C (stereo not drawn) [GDM, Glycerol dimethacrylate]
<0.05 w %	CCCCOC(=O)CC(O)(CC(=O)OCCCC)C(=O)OCCCC [TBC, Tributyl citrate]
6 w %	COC(=O)CC(O)(CC(=O)OC)C(=O)OC [TMC, Trimethyl citrate]
3 w %	C4H9(OC3H6)3—OH [DTPnB]
